Test results published in patent publication US5516790A, “Synthesis and application of alkyl-substituted dibenzofurans as antitumorigenic agents” (Texas A&M University System Technology Licensing Office, priority 1994, dated 1996).

Legend:
[1] = system: progesterone receptor (PR); assay: Uterine progesterone receptor levels, hydroxyapatite assay (Example 8); format: in vivo, female Sprague-Dawley rats; settings: for ED40-60 for Inhibition, PRc / ED40-60 for Inhibition, PRn: cotreatment with 17β-estradiol
Protocol: (§1) The animals were terminated by cervical dislocation. Livers were perfused with ice-cold TEDG buffer (10 mM Tris-HCl, 1.5 mM EDTA-4Na, 1 mM dithiothreitol, 10% glycerol (v/v), pH 7.4). Following perfusion in situ, livers were removed, weighed, and homogenized in ice-cold TEDG buffer. Uteri were also removed, weighed, and homogenized in ice-cold buffer. The homogenates were then centrifuged at 800×g ([…]) for 15 minutes and the nuclear pellets were stored at -80° C. The supernatants were further centrifuged at 180,000× g for 1.5 hours. The cytosolic supernatant was also stored at -80° C. Estrogen and progesterone receptor levels were determined within 7 days.
(§2) Estrogen (ER) and progesterone (PR) receptor levels were determined by the hydroxyapatite assay as described by Clark et al. (J. Steroid Biochem. 16:323-328, 1982) and incorporated herein by reference. […] Following the incubations, samples were counted and specific binding was calculated by subtraction of nonspecific from total binding. Assuming one steroid molecule binds to one estrogen/progesterone receptor, the number of moles of receptor can be calculated given the specific activity of the radioligand. The data presented in Tables 1 through 6 are means ± SD using at least four animals per treatment group. Significant differences were determined by analysis of variance.

estrogen receptor (ER) = assay: Uterine estrogen receptor levels, hydroxyapatite assay (Example 8); format: in vivo, female Sprague-Dawley rats; settings: for ED40-60 for Inhibition, ERc / ED40-60 for Inhibition, ERn: cotreatment with 17β-estradiol
Protocol: A second group of animals was similarly treated with corn oil, TCDD, MCDF, or TCDD plus MCDF, all administered in corn oil at 10 ml/kg and terminated 72 hours later.
as §1, §2

female rat uterus = assay: Antiestrogenic effect on uterine wet weight, immature female Sprague-Dawley rats (Example 8); format: in vivo
[2] = Table 2: 50 μmol/kg + E-2 (2 × 10 μg/rat)
[3] = Table 2: compound alone, 50 μmol/kg (17β-estradiol: 2 × 10 μg/rat)
[4] = dose-response, 2 μmol/kg + 17β-estradiol (2 × 10 μg/rat)
[5] = dose-response, 10 μmol/kg + 17β-estradiol (2 × 10 μg/rat)
[6] = dose-response, 25 μmol/kg + 17β-estradiol (2 × 10 μg/rat)
[7] = dose-response, 50 μmol/kg + 17β-estradiol (2 × 10 μg/rat)
[8] = dose-response, 150 μmol/kg + 17β-estradiol (2 × 10 μg/rat)
[9] = 150 μmol/kg + E-2 (2 × 10 μg/rat), run B
[10] = compound alone, 150 μmol/kg (17β-estradiol: 2 × 10 μg/rat), run B

Cc1cc(Cl)cc2c1oc1c(Cl)c(Cl)c(Cl)cc12 [6-Methyl-2,3,4,8-tetraCDF, 6-Methyl-2,3,4,8-tetrachlorodibenzofuran]
Progesterone Receptor Levels, Cytosolic [1, 2]: 795 ± 52 fmol/mg protein | Progesterone Receptor Levels, Nuclear [1, 2]: 1081 ± 131 fmol/mg protein | Progesterone Receptor Levels, Cytosolic [1, 3]: 625 ± 71 fmol/mg protein | Progesterone Receptor Levels, Nuclear [1, 3]: 457 ± 58 fmol/mg protein | ED40-60 for Inhibition, PRc [1]: 2 µmol/kg | ED40-60 for Inhibition, PRn [1]: 10 µmol/kg | Progesterone Receptor Levels, Cytosolic [1, 4]: 1220 ± 85 fmol/mg protein | Progesterone Receptor Levels, Nuclear [1, 4]: 925 ± 74 fmol/mg protein | Progesterone Receptor Levels, Cytosolic [1, 5]: 970 ± 68 fmol/mg protein | Progesterone Receptor Levels, Nuclear [1, 5]: 765 ± 61 fmol/mg protein | Progesterone Receptor Levels, Cytosolic [1, 6]: 1000 ± 63 fmol/mg protein | Progesterone Receptor Levels, Nuclear [1, 6]: 645 ± 52 fmol/mg protein | Progesterone Receptor Levels, Cytosolic [1, 7]: 885 ± 53 fmol/mg protein | Progesterone Receptor Levels, Nuclear [1, 7]: 450 ± 36 fmol/mg protein | Estrogen Receptor Levels, Cytosolic (estrogen receptor (ER); [2]): 176.3 ± 20.3 fmol/mg protein | Estrogen Receptor Levels, Nuclear (estrogen receptor (ER); [2]): 69.9 ± 9.4 fmol/mg protein | Estrogen Receptor Levels, Cytosolic (estrogen receptor (ER); [3]): 96.2 ± 11.2 fmol/mg protein | Estrogen Receptor Levels, Nuclear (estrogen receptor (ER); [3]): 31.3 ± 5.6 fmol/mg protein | ED40-60 for Inhibition, ERc (estrogen receptor (ER)): 2 µmol/kg | ED40-60 for Inhibition, ERn (estrogen receptor (ER)): 2 µmol/kg | Estrogen Receptor Levels, Cytosolic (estrogen receptor (ER); [4]): 86.7 ± 4.3 fmol/mg protein | Estrogen Receptor Levels, Nuclear (estrogen receptor (ER); [4]): 64.7 ± 3.9 fmol/mg protein | Estrogen Receptor Levels, Cytosolic (estrogen receptor (ER); [5]): 83.9 ± 4.2 fmol/mg protein | Estrogen Receptor Levels, Nuclear (estrogen receptor (ER); [5]): 53.8 ± 3.2 fmol/mg protein | Estrogen Receptor Levels, Cytosolic (estrogen receptor (ER); [6]): 75.1 ± 3.8 fmol/mg protein | Estrogen Receptor Levels, Nuclear (estrogen receptor (ER); [6]): 49.3 ± 3.0 fmol/mg protein | Estrogen Receptor Levels, Cytosolic (estrogen receptor (ER); [7]): 71.0 ± 3.6 fmol/mg protein | Estrogen Receptor Levels, Nuclear (estrogen receptor (ER); [7]): 40.0 ± 2.4 fmol/mg protein | Uterine Wet Weight (female rat uterus; [2]): 0.163 ± 0.019 % body wt | Uterine Wet Weight (female rat uterus; [3]): 0.109 ± 0.020 % body wt | Uterine Wet Weight (female rat uterus; [4]): 0.268 ± 0.044 % body wt | Uterine Wet Weight (female rat uterus; [5]): 0.221 ± 0.020 % body wt | Uterine Wet Weight (female rat uterus; [6]): 0.191 ± 0.006 % body wt | Uterine Wet Weight (female rat uterus; [7]): 0.158 ± 0.004 % body wt

Cc1cc(Cl)cc2c1oc1cc(Cl)c(Cl)cc12 [6-Methyl-2,3,8-triCDF, 6-methyl-2,3,8-trichlorodibenzofuran]
Progesterone Receptor Levels, Cytosolic [1, 2]: 1062 ± 121 fmol/mg protein | Progesterone Receptor Levels, Nuclear [1, 2]: 622 ± 71 fmol/mg protein | Progesterone Receptor Levels, Cytosolic [1, 3]: 356 ± 65 fmol/mg protein | Progesterone Receptor Levels, Nuclear [1, 3]: 395 ± 52 fmol/mg protein | Estrogen Receptor Levels, Cytosolic (estrogen receptor (ER); [2]): 105.3 ± 12.2 fmol/mg protein | Estrogen Receptor Levels, Nuclear (estrogen receptor (ER); [2]): 70.8 ± 8.1 fmol/mg protein | Estrogen Receptor Levels, Cytosolic (estrogen receptor (ER); [3]): 84.3 ± 9.3 fmol/mg protein | Estrogen Receptor Levels, Nuclear (estrogen receptor (ER); [3]): 55.8 ± 7.1 fmol/mg protein | Uterine Wet Weight (female rat uterus; [2]): 0.204 ± 0.020 % body wt | Uterine Wet Weight (female rat uterus; [3]): 0.125 ± 0.024 % body wt

CCCc1cc(Cl)cc2c1oc1cc(Cl)cc(Cl)c12 [6-Propyl-1,3,8-Trichlorodibenzofuran]
Progesterone Receptor Levels, Cytosolic [1, 5]: 1501 ± 105 fmol/mg protein | Progesterone Receptor Levels, Nuclear [1, 5]: 850 ± 68 fmol/mg protein | Progesterone Receptor Levels, Cytosolic [1, 6]: 1055 ± 74 fmol/mg protein | Progesterone Receptor Levels, Nuclear [1, 6]: 515 ± 41 fmol/mg protein | Progesterone Receptor Levels, Cytosolic [1, 7]: 1105 ± 77 fmol/mg protein | Progesterone Receptor Levels, Nuclear [1, 7]: 510 ± 41 fmol/mg protein | Progesterone Receptor Levels, Cytosolic [1, 8]: 1190 ± 83 fmol/mg protein | Progesterone Receptor Levels, Nuclear [1, 8]: 660 ± 53 fmol/mg protein | Estrogen Receptor Levels, Cytosolic (estrogen receptor (ER); [5]): 105.5 ± 5.3 fmol/mg protein | Estrogen Receptor Levels, Nuclear (estrogen receptor (ER); [5]): 81.5 ± 4.9 fmol/mg protein | Estrogen Receptor Levels, Cytosolic (estrogen receptor (ER); [6]): 87.8 ± 4.4 fmol/mg protein | Estrogen Receptor Levels, Nuclear (estrogen receptor (ER); [6]): 56.6 ± 2.8 fmol/mg protein | Estrogen Receptor Levels, Cytosolic (estrogen receptor (ER); [7]): 66.7 ± 3.3 fmol/mg protein | Estrogen Receptor Levels, Nuclear (estrogen receptor (ER); [7]): 41.1 ± 2.1 fmol/mg protein | Estrogen Receptor Levels, Cytosolic (estrogen receptor (ER); [8]): 88.2 ± 4.4 fmol/mg protein | Estrogen Receptor Levels, Nuclear (estrogen receptor (ER); [8]): 35.6 ± 1.8 fmol/mg protein | Uterine Wet Weight (female rat uterus; [5]): 0.192 ± 0.013 % body wt | Uterine Wet Weight (female rat uterus; [6]): 0.170 ± 0.010 % body wt | Uterine Wet Weight (female rat uterus; [7]): 0.202 ± 0.014 % body wt | Uterine Wet Weight (female rat uterus; [8]): 0.216 ± 0.012 % body wt

CC(C)c1cc(Cl)cc2c1oc1cc(Cl)cc(Cl)c12 [6-i-Propyl-1,3,8-triCDF]
Progesterone Receptor Levels, Cytosolic [1, 9]: 2131 ± 76 fmol/mg protein | Progesterone Receptor Levels, Nuclear [1, 9]: 272 ± 19 fmol/mg protein | Progesterone Receptor Levels, Cytosolic [1, 10]: 1225 ± 59 fmol/mg protein | Progesterone Receptor Levels, Nuclear [1, 10]: 242 ± 17 fmol/mg protein | ED40-60 for Inhibition, PRc [1]: 25 µmol/kg | ED40-60 for Inhibition, PRn [1]: 25 µmol/kg | Estrogen Receptor Levels, Cytosolic (estrogen receptor (ER); [9]): 135.5 ± 78.1 fmol/mg protein | Estrogen Receptor Levels, Nuclear (estrogen receptor (ER); [9]): 52.6 ± 2.6 fmol/mg protein | Estrogen Receptor Levels, Cytosolic (estrogen receptor (ER); [10]): 95.2 ± 6.2 fmol/mg protein | Estrogen Receptor Levels, Nuclear (estrogen receptor (ER); [10]): 57.7 ± 2.9 fmol/mg protein | ED40-60 for Inhibition, ERc (estrogen receptor (ER)): 10 µmol/kg | ED40-60 for Inhibition, ERn (estrogen receptor (ER)): 25 µmol/kg | Uterine Wet Weight (female rat uterus; [9]): 0.210 ± 0.012 % body wt | Uterine Wet Weight (female rat uterus; [10]): 0.154 ± 0.017 % body wt | antiuterotrophic activity (female rat uterus; rat, in vivo): surprisingly active

CCCc1cc(Cl)cc2c1oc1cc(Cl)cc(Cl)c12 [6-n-Propyl-1,3,8-triCDF]
Progesterone Receptor Levels, Cytosolic [1, 9]: 1838 ± 62 fmol/mg protein | Progesterone Receptor Levels, Nuclear [1, 9]: 408 ± 29 fmol/mg protein | Progesterone Receptor Levels, Cytosolic [1, 10]: 740 ± 71 fmol/mg protein | Progesterone Receptor Levels, Nuclear [1, 10]: 294 ± 21 fmol/mg protein | Estrogen Receptor Levels, Cytosolic (estrogen receptor (ER); [9]): 169.4 ± 6.0 fmol/mg protein | Estrogen Receptor Levels, Nuclear (estrogen receptor (ER); [9]): 33.7 ± 1.7 fmol/mg protein | Estrogen Receptor Levels, Cytosolic (estrogen receptor (ER); [10]): 86.4 ± 8.1 fmol/mg protein | Estrogen Receptor Levels, Nuclear (estrogen receptor (ER); [10]): 35.4 ± 1.8 fmol/mg protein | Uterine Wet Weight (female rat uterus; [9]): 0.240 ± 0.019 % body wt | Uterine Wet Weight (female rat uterus; [10]): 0.118 ± 0.008 % body wt
